{
  "source": "patent US11976055B1",
  "about": "“2-(1-(3-(dimethylamino)propyl)-4,5-diphenyl-1H-imidazol-2-yl)pyridin-3-ol as an antitumor and antimicrobial compound” (KING FAISAL UNIVERSITY, priority 2023, dated 2024)",
  "key": {"[1]": {"test_system": "human prostate cancer cells (PC3)", "experiment": "Cytotoxicity by SRB assay, PC3 cells", "format": "cell-based", "details": "androgen-independent metastatic human prostate cancer cells (PC3), 0.01 μM to 100 μM, 72 h", "experimental": "(§1) The human prostate cancer cells (PC3) and human osteosarcoma cells (MG-63) were obtained from Nawah Scientific Inc. (Mokatam, Cairo, Egypt) and cultured in DMEM (Dulbecco's modified eagle's medium), Gibco, USA, supplemented with fetal bovine serum (FBS) at a concentration of 10% and 100 U/mL of penicillin and streptomycin (PS). The Cells were incubated at 37° C. in a humidified environment that contained 5% CO2. Cells were seeded in 96-well plates as aliquots of 100 μL cell suspension and incubated in a complete media for 24 h. afterward, cells were treated with 2-(1-(3-(Dimethylamino)propyl)-4,5-diphenyl-1H-imidazol-2-yl)pyridin-3-ol at diverse concentrations ranging from 0.01 μM to 100 μM for 72 h. […] Then, 150 μL of Tris pH 10.5 (10 mM) was added, and the absorbance was measured at 540 nm using a BMG LABTECH®-FLUOstar Omega microplate reader (Ortenberg, Germany). Half maximal inhibitory concentrations (IC50) values were calculated for each experiment using GraphPad Prism 6 software. […] The inhibition was calculated using the following equation: Inhibition %=100−Average Viability The anticancer activity of 2-(1-(3-(Dimethylamino)propyl)-4,5-diphenyl-1H-imidazol-2-yl)pyridin-3-ol was assessed against highly aggressive androgen-independent metastatic human prostate cancer cells (PC3) and osteosarcoma (MG-63) cells."}, "[2]": {"test_system": "human osteosarcoma cells (MG-63)", "experiment": "Cytotoxicity by SRB assay, MG-63 cells", "format": "cell-based", "details": "osteosarcoma (MG-63) cells, 0.01 μM to 100 μM, 72 h", "experimental": "as §1"}},
  "data": [
    {"smiles": "CN(C)CCCn1c(-c2ncccc2O)nc(-c2ccccc2)c1-c1ccccc1", "note": "[2-(1-(3-(Dimethylamino)propyl)-4,5-diphenyl-1H-imidazol-2-yl)pyridin-3-ol]", "values": [
      {"measurement": "antiproliferative activity against PC3 cells", "setting": "[1]", "result": "excellent antiproliferative activities"},
      {"measurement": "antiproliferative activity against MG-63 cells", "setting": "[2]", "result": "excellent antiproliferative activities"},
      {"measurement": "melting point", "result": "133 to 135", "unit": "°C"}
    ]}
  ]
}
